One data set relates to cultured cells. The following applies: cited from earlier work.
Data set [1] relates to human skin cells (human fibroblast cells). The experiment in a line: Flow cytometry of non-bisretinoid lipofuscin content per cell. It counts as cell-based. The following applies: for total non-bisretinoid lipofuscin content, Average / total non-bisretinoid lipofuscin content, individual samples 1-4: 2HPβCD for five days. From the text: Table 3 and FIG. 4 presents data obtained from the treatment of human fibroblast cells with 10 rng/ml 2HPβCD for five days.
The values of Table 3 represent total non-bisretinoid lipofuscin content measured in fluorescent units per cell using a BD FACSCANTO™ II flow cytometer (BD Biosciences, San Jose, Calif.). Measurements were made with a 488 nm blue argon laser with a 530/30 nm FITC band pass filter. The total cell population size for each individual sample measurement was n>15,000 cells.
(In general: In flow cytometry, cells or beads pass a laser one at a time.)

Data set [2] deals with fibroblasts. Briefly: Confocal microscopy of lipofuscin in fibroblasts. It counts as cell-based. The following applies: after 8 days (FIG. 5). From the text: FIG. 5 provides representative confocal photomicrographs wherein the accumulation of lipofuscin in fibroblasts that were either treated with HPβCD or were not treated with HPβCD was fluorescently imaged over the course of 8 days.

Another data set relates to THP-1 cells. Briefly: Acridine orange uptake assay for lysosomal membrane permeabilization. It counts as cell-based. As for the experimental part:
To prepare FIG. 3A-B, THP-1 cells were exposed to different LDL treatments over 7 days and then assessed for lysosomal membrane permeabilization using an acridine orange uptake assay. In FIG. 3A: Acridine orange was excited at 488 nm and emissions recorded at 633 and 520 nm. Higher signal intensities at 520 nm and lower intensities at 633 nm were indicative of lysosomal instability. 7KC-LDL induced lysosomal membrane permeabilization that was attenuated by HβCD that was added to samples on day 6. In FIG. 3B: Flow cytometry signal are presented as intensities as a percent of control (normal LDL-treated). […] Although both the 633 nm and 520 nm signal intensities decreased after HβCD amendment for oxLDL and 7KC-LDL, the decrease in the 520 nm signal was of greater magnitude, thereby indicating increased lysosomal stability.

Data set [3] concerns lipofuscin loaded cells (PC cells) (human skin fibroblasts). Briefly: Autofluorescence of lipofuscin loaded cells (removal of pre-existing lipofuscin). It counts as cell-based. The following applies: PC cells treated day 5 to day 10 and further 48 hours; untreated 13%; p 0.05. As for the experimental part:
FIG. 6 provides representative quantified data of the autofluorescence of lipofuscin loaded cells (PC cells) (human skin fibroblasts, Coriell Cell Repositories, Catalog #GM00498) either untreated or treated with CD in order to track the removal of lipofuscin already present within the PC cells. To perform the assay, PC cells were allowed to grow for 5 days, and the PC cells were treated such that lipofuscin was produced only from day 1 through […]. After 5 days, one population of cells (“treated population”, PC+cyclodextrin in FIG. 6) was treated with cyclodextrin from day 5 to day 10, whereas a second population of cells (“untreated population”, PC only in FIG. 6) remained untreated from day 5 to day 10. On day 10, lipofuscin levels were measured for both cell populations. Following this measurement, the untreated population was placed in media only for 48 hours whereas the treated population was placed in media containing cyclodextrin for 48 hours. 48 hours following this transfer of the cell populations to their respective media, the lipofuscin levels of both the untreated and treated populations were again measured. […] The p-value comparing the percentage differences between the treated and untreated populations was 0.05. […]

For data set [4], the system named is fibroblasts. The experiment in a line: Fluorescence imaging of native lipofuscin in fibroblasts. The following applies: for native lipofuscin autofluorescence versus untreated cells: fibroblasts maintained 16 days, cyclodextrin during days 1-8 (FIG. 7A-B). It counts as cell-based. As to the method:
Healthy fibroblasts were passaged (˜P25) and grown to confluency in media. The cells in FIG. 7A (“untreated”) were maintained for 16 days; likewise, the cells in FIG. 7B (“treated”) were maintained for 16 days, however, cyclodextrin was added to the treated cells during days 1-8. Following the 16 day period of cell maintenance, lipofuscin levels were observed using fluorescence imaging as lipofuscin appears as a bright red autofluorescent material during fluorescence-based imaging. […] In order to ascertain whether or not the untreated or treated fibroblasts appeared healthy after the 16 day period of maintenance, both the untreated and treated fibroblasts were imaged with 60× magnification using light microscopy.

For a further data set, the system named is human skin fibroblasts. The experiment in a line: CCK-8 cell viability assay. It counts as cell-based. The following applies: days 4, 7 and 10; NC+CD and T versus NC and PC. As to the method:
In order to determine whether cells were still viable when treated with cyclodextrin, a CCK-8 assay was performed on cells (human skin fibroblasts, Coriell Cell Repositories, Catalog #GM00498) over the course of a 10 days period (FIG. 8). On each day 4, day 7, and day 10, the viability of the cells was ascertained through a CCK-8 assay whereby colorimetric change was indicative of change in the cell viability status. The cell populations tested on day 4, day 7, and day 10 were healthy negative control cells (NC), healthy cells treated with cyclodextrin (NC+CD), lipofuscin loaded cells (PC), and lipofuscin loaded cells treated with cyclodextrin (T). […] FIG. 8 also presents blanks that were used as controls (the blanks appear circled in red in FIG. 8).
A general note: Tetrazolium assays rely on reduction of a dye to a coloured formazan, in cell work by metabolically active cells.

For a further data set, the system named is TFEB. Briefly: RT-PCR analysis of major lysosome genes. It counts as cell-based. The following applies: NC w/CD and PC w/CD at day 10 compared to PC. As for the experimental part: (§1) To address the mechanisms by which cyclodextrin treatment can remove lipofuscin from cells, a RT-PCR analysis of major lysosome genes was performed (FIG. 9). Healthy cells treated with cyclodextrin (“NC w/CD”), lipofuscin loaded cells (“PC”), and lipofuscin loaded cells treated with cyclodextrin (“PC w/CD”) were maintained for 10 days. Following the 10 day period, RT-PCR was performed on each cell population in order to ascertain the regulation status of the major lysosome genes ULK1, TFEB, and HMOX.

A further data set relates to ULK1. The experiment in a line: RT-PCR analysis of major lysosome genes. The following applies: NC w/CD and PC w/CD at day 10 compared to PC. It counts as cell-based. As to the method: as §1
In data set [5] the test system is cholesterol present in a cell population. The experiment in a line: Filipin staining of cellular cholesterol. It counts as cell-based. The following applies: for cholesterol content of cells by filipin stain: after 4 days of maintenance, 100× (FIG. 11A-D). As to the method:
To further address the mechanism by which cyclodextrin treatment can decrease the concentration of lipofuscin in cells, filipin staining experiments were performed (FIG. 10A-D, FIG. 11A-D, and FIG. 12A-D). Filipin stain can be used to visualize the cholesterol present in a cell population. FIG. 10A and FIG. 10C provide representative photomicrographs of two different cell populations before confluency. Four days after the time the micrographs in FIG. 10A and FIG. 10C were produced, a filipin stain was applied to both cell populations (FIG. 10B and FIG. 10D), however, in the case of FIG. 10D, the cell population was treated with cyclodextrin for 3.5 hours before the filipin staining procedure. […] In order to measure the effects of long term cyclodextrin treatment, untreated healthy cells (NC), healthy cells treated with cyclodextrin (NC w/CD), untreated cells loaded with lipofuscin (PC), and cells loaded with lipofuscin and treated with cyclodextrin (PC w/CD) were filipin stained and imaged at 100× magnification after 4 days of maintenance (FIG. 11A-D) and were filipin stained and imaged at 200× magnification after 9 days of cell maintenance (FIG. 12A-D).

Data set [6] deals with NC and PC cell populations. The experiment in a line: Cell survival after exposure to lysomotropic agent MSDH. The following applies: for cell survival after MSDH: 45 μM MSDH for 42 hours; for cell death after MSDH: 55 μM MSDH for 42 hours. It counts as cell-based. As to the method: To further elucidate the mechanism by which cyclodextrin can decrease the concentration of lipofuscin in cells, an assay in which the lysomotropic agent MSDH was administered to cells in order to measure the effect of cyclodextrin administration on cellular health post-MSDH treatment was performed (FIG. 13A-D and FIG. 14A-D). FIG. 13A-D provides representative photomicrographs of NC, PC, NC w/CD, and PC w/CD cell populations after 42 hours of exposure to 45 μM of MSDH. […] FIG. 14A-D provides representative photomicrographs of NC (FIG. 14A), PC (FIG. 14B), NC w/CD (FIG. 14C), and PC w/CD (FIG. 14D) cell populations, respectively, after the populations were exposed to an increased level of MSDH for an increased […] (55 μM for 42 hours). […] The results of FIG. 14A-D were indicative of different degrees of lysosomal membrane cholesterol composition change pending cyclodextrin treatment and lipofuscin levels, with the aged lipofuscin loaded cells treated with cyclodextrin being the most resistant to MSDH treatment (FIG. 14D).

Where [7] appears, read: Aged Human Skin Cells + 2-HPCD (Test).
The mark [8] stands for this setting: Human Skin Cells + 2-HPCD (Negative Control + Drug).

The values below come from US20180085392A1, “CYCLODEXTRIN COMPOUNDS FOR THE PREVENTION AND TREATMENT OF AGING” (SENS RESEARCH FOUNDATION, INC., priority 2015, published 2018).

Several values for one entry are separate records, joined by “and”; a condition that tells them apart may be missing. Equal values may be shown once.

With methyl-β-cyclodextrin [MβCD], the “efficiency of cholesterol removal compared with β-cyclodextrin” value with cultured cells is “more efficient”.

2-hydroxypropyl-β-cyclodextrin [HPβCD]: the results for the “total non-bisretinoid lipofuscin content, Average” value in data set [1] (setting [7]) and in data set [1] (setting [8]) were 6131 fluorescent units per cell and 2600 fluorescent units per cell, respectively. Also, the “total non-bisretinoid lipofuscin content, individual samples 1-4” value was 6278 fluorescent units per cell and 6453 fluorescent units per cell and 5982 fluorescent units per cell and 5809 fluorescent units per cell in data set [1] (setting [7]); 2552 fluorescent units per cell and 2564 fluorescent units per cell and 2638 fluorescent units per cell and 2647 fluorescent units per cell in data set [1] (setting [8]). In addition, in data set [1] (aged human skin cells, 5-day treatment (FIG. 4)), the “lipofuscin levels by flow cytometry fluorescence (in words)” value is reported as “decreased”. Moreover, the “reduction of non-bisretinoid lipofuscin” value in data set [1] (aged human skin cells, 5-day treatment, p<0.00001) turned out to be 31.4%. The “lipopigment accumulation (fluorescence) versus untreated fibroblasts” value in the data set with fibroblasts [2] is recorded as “lower lipopigment accumulation”. In the data set on THP-1 cells (LDL treatments over 7 days, HβCD added on day 6 (FIG. 3A)), the “lysosomal destabilization/permeability caused by 7-ketocholesterol (7KC-LDL)” value is recorded as “attenuated”. Further, the “633 nm/520 nm ratio of acridine orange signal” value in the data set on THP-1 cells (nLDL, oxLDL and 7KC-LDL (FIG. 3B)) is “improved”. Also, the “decrease in autofluorescence from day 10 to day 12” value in [3] was determined as 23%. In the data set with fibroblasts [4] (after 16 day period, 60× magnification (FIG. 7C-D)), the “appearance of treated fibroblasts by light microscopy” value is “appeared to be healthy”. Further, the entries for the “native lipofuscin autofluorescence versus untreated cells” value in the data set on fibroblasts [4] and in the data set on fibroblasts [4] (listed as cyclodextrin) were “visibly decreased” and “significantly reduced”, respectively. In addition, the “cell viability, colorimetric change in CCK-8 assay” value in the data set on human skin fibroblasts is listed as “no visible colorimetric difference”. The “regulation of TFEB” value with TFEB is “no upregulation”. Also, in the data set with ULK1, the “regulation of ULK1” value is “no upregulation”. Further, the “cholesterol content of cells by filipin stain” value in data set [5] is on record as “increased”; in [5] (listed as cyclodextrin), “reduction of the cholesterol content”. In data set [5] (long term treatment, after 9 days of maintenance, 200× (FIG. 12A-D)), the “overall cellular levels of cholesterol by filipin stain” value is reported as “increase the overall cellular levels of cholesterol”. The “total cholesterol by filipin stain” value in data set [5] (treated for 3.5 hours before staining (FIG. 10D vs 10B)) is given as “reduction in total cholesterol”. Besides, the “cell survival after MSDH” value is reported as “able to survive” in data set [6] (NC w/CD (healthy cells), untreated NC killed) and “able to survive” in [6] (PC w/CD (lipofuscin loaded cells)). For the same substance, the “cell death after MSDH” value in data set [6] (NC w/CD (healthy cells), untreated NC complete death) was “moderate death”; in [6] (PC w/CD (lipofuscin loaded cells), untreated PC moderate death), “no death”.
